Data published in PubChem BioAssay (NCI).
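Step 1: Grow cells in 96-well plates. Step 2: Expose to compound for 48 hours at 5 concentrations. Step 3: Interpolate endpoints linearly; if unreached, use highest concentration. GI50 marks 50% less growth. TGI: total growth inhibition.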

Assays:
Assay in all cases: NCI tumour cell line growth inhibition, 48 h
[1] = tested on: A498 renal
[2] = tested on: MCF7 breast
[3] = tested on: OVCAR-8 ovarian
[4] = tested on: KM12 colon
[5] = tested on: UACC-257 melanoma
[6] = tested on: NCI-H23 lung
[7] = tested on: SK-MEL-2 melanoma
[8] = tested on: M19-MEL melanoma
[9] = tested on: SNB-78 CNS
[10] = tested on: HCT-15 colon
[11] = tested on: OVCAR-3 ovarian
[12] = tested on: SF-539 CNS
[13] = tested on: P388 leukemia
[14] = tested on: COLO 205 colon
[15] = tested on: SK-MEL-28 melanoma
[16] = tested on: NCI-H522 lung
[17] = tested on: SW-620 colon
[18] = tested on: SF-268 CNS
[19] = tested on: LOX IMVI melanoma
[20] = tested on: XF 498 CNS
[21] = tested on: SF-295 CNS
[22] = tested on: EKVX NSCLC
[23] = tested on: SNB-75 CNS
[24] = tested on: SNB-19 CNS
[25] = tested on: MALME-3M melanoma
[26] = tested on: UACC-62 melanoma
[27] = tested on: RPMI-8226 leukemia
[28] = tested on: DMS 273 small cell lung
[29] = tested on: HOP-18 NSCLC
[30] = tested on: NCI-H460 lung
[31] = tested on: SK-MEL-5 melanoma
[32] = tested on: OVCAR-5 ovarian
[33] = tested on: SK-OV-3 ovarian
[34] = tested on: SN12K1 renal
[35] = tested on: HCT-116 colon
[36] = tested on: A549 NSCLC
[37] = tested on: MOLT-4 leukemia
[38] = tested on: K-562 leukemia
[39] = tested on: OVCAR-4 ovarian
[40] = tested on: UO-31 renal
[41] = tested on: U251 CNS
[42] = tested on: DLD-1 colon
[43] = tested on: NCI/ADR-RES ovarian
[44] = tested on: IGROV1 ovarian
[45] = tested on: NCI-H226 lung
[46] = tested on: SN12C renal
[47] = tested on: CCRF-CEM leukemia
[48] = tested on: HL-60(TB) leukemia
[49] = tested on: HCC-2998 colon
[50] = tested on: HOP-62 NSCLC
[51] = tested on: HOP-92 NSCLC
[52] = tested on: HT29 colon
[53] = tested on: RXF 393 renal
[54] = tested on: MDA-MB-231 breast
[55] = tested on: CAKI-1 renal
[56] = tested on: 786-0 renal
[57] = tested on: DMS 114 small cell lung
[58] = tested on: LXFL 529 NSCLC
[59] = tested on: SR leukemia
[60] = tested on: ACHN renal
[61] = tested on: RXF-631 renal
[62] = tested on: TK-10 renal
[63] = tested on: KM20L2 colon
[64] = tested on: M14 melanoma

With `Nc1cc(O)c2cc(N=Nc3ccc(N=Nc4ccc(N=Nc5ccc6cc(S(=O)(=O)O)cc(S(=O)(=O)O)c6c5)c5ccccc45)c4cc(S(=O)(=O)O)ccc34)c(S(=O)(=O)O)cc2c1` the TGI [1] was > 100 µM, the TGI [2] was > 100 µM and the TGI [3] was > 100 µM. For the same compound, the TGI [4] was > 100 µM, the TGI [5] was > 100 µM and the TGI [6] was > 100 µM. The TGI [7] was > 100 µM, the TGI [8] was > 100 µM and the TGI [9] was > 100 µM. For the same compound, the TGI [10] was > 100 µM, the TGI [11] was > 100 µM and the TGI [12] was > 100 µM. For the same compound, the TGI [13] was > 100 µM, the TGI [14] was > 100 µM and the TGI [15] was > 100 µM. The TGI [16] was > 100 µM, the TGI [17] was > 100 µM and the TGI [18] was > 100 µM. For the same compound, the TGI [19] was > 100 µM, the TGI [20] was > 100 µM and the TGI [21] was > 100 µM. The TGI [22] was > 100 µM, the TGI [23] was > 100 µM and the TGI [24] was > 100 µM. The TGI [25] was > 100 µM, the TGI [26] was > 100 µM and the TGI [27] was > 100 µM. The TGI [28] was > 100 µM, the TGI [29] was > 100 µM and the TGI [30] was > 100 µM. For the same compound, the TGI [31] was > 100 µM, the TGI [32] was > 100 µM and the TGI [33] was > 100 µM. For the same compound, the TGI [34] was > 100 µM, the TGI [35] was > 100 µM and the TGI [36] was > 100 µM. The TGI [37] was > 100 µM, the TGI [38] was > 31.6 µM and the TGI [39] was > 100 µM. For the same compound, the TGI [40] was > 100 µM, the TGI [41] was > 100 µM and the TGI [42] was > 100 µM. For the same compound, the TGI [43] was > 100 µM, the TGI [44] was > 100 µM and the TGI [45] was > 93.3 µM. For the same compound, the TGI [46] was > 100 µM, the TGI [47] was > 100 µM and the TGI [48] was > 100 µM. For the same compound, the TGI [49] was > 100 µM, the TGI [50] was > 100 µM and the TGI [51] was > 93.3 µM. The TGI [52] was > 100 µM and the TGI [53] was > 100 µM.

Compound `COc1ccc2c3c(c4cc(OC)c(OC)cc4c2c1)C[C@H]1CCCCN1C3` has a TGI [2] of 0.0316 µM, a TGI [3] of 0.0231 µM and a TGI [4] of 1.84e-06 µM. For the same compound, the GI50 [6] was 2.01 pM, the TGI [6] was 0.000279 µM and the TGI [9] was 0.00897 µM. The TGI [13] was 0.00512 µM, the GI50 [16] was 2.82 pM and the TGI [16] was 0.000216 µM. For the same compound, the GI50 [17] was 0.00889 µM, the TGI [19] was 0.029 µM and the TGI [54] was 1.92 pM. The GI50 [23] was 1.78 pM, the TGI [23] was 0.000103 µM and the GI50 [25] was 1.82 pM. For the same compound, the TGI [25] was 9.88e-06 µM, the TGI [55] was 0.00103 µM and the TGI [33] was 0.0149 µM. For the same compound, the TGI [35] was 0.011 µM, the TGI [39] was 0.00591 µM and the TGI [40] was 4.42e-06 µM. The TGI [41] was 0.0212 µM, the TGI [42] was 0.038 µM and the TGI [56] was 0.000212 µM. The TGI [50] was 1.65e-06 µM.

For `Cc1c(C(=O)C/C(=N/NC(=O)CC#N)C(N)=O)[n+](=O)c2ccccc2n1[O-]`, the TGI [1] was > 100 µM, the TGI [57] was 57.8 µM and the TGI [3] was > 100 µM. For the same compound, the TGI [4] was > 100 µM, the TGI [5] was > 100 µM and the TGI [6] was > 100 µM. For the same compound, the TGI [58] was > 100 µM, the TGI [7] was > 100 µM and the TGI [8] was 50.7 µM. For the same compound, the TGI [9] was > 100 µM, the TGI [10] was > 100 µM and the TGI [11] was 61.8 µM. The TGI [12] was > 100 µM, the TGI [14] was > 100 µM and the TGI [15] was > 100 µM. The TGI [16] was 51.6 µM, the TGI [17] was 34.5 µM and the TGI [18] was > 100 µM. For the same compound, the TGI [19] was > 100 µM, the TGI [20] was > 100 µM and the TGI [59] was > 100 µM. The TGI [21] was > 100 µM, the TGI [22] was > 100 µM and the TGI [23] was > 100 µM. For the same compound, the TGI [24] was > 100 µM, the TGI [25] was > 100 µM and the TGI [26] was > 100 µM. For the same compound, the TGI [27] was > 100 µM, the TGI [28] was > 100 µM and the TGI [60] was > 100 µM. For the same compound, the TGI [55] was > 100 µM, the TGI [29] was > 100 µM and the TGI [30] was > 100 µM. For the same compound, the TGI [31] was > 100 µM, the TGI [32] was > 100 µM and the TGI [33] was > 100 µM. For the same compound, the TGI [35] was 94 µM, the TGI [36] was > 100 µM and the TGI [37] was > 100 µM. The TGI [38] was > 100 µM, the TGI [39] was > 100 µM and the TGI [61] was > 100 µM. For the same compound, the TGI [40] was > 100 µM, the TGI [41] was > 100 µM and the TGI [42] was > 100 µM. For the same compound, the TGI [44] was 87.5 µM, the TGI [62] was > 100 µM and the TGI [56] was > 100 µM. The TGI [45] was > 100 µM, the TGI [46] was 97.7 µM and the TGI [47] was > 100 µM. For the same compound, the TGI [48] was 69.4 µM, the TGI [49] was > 100 µM and the TGI [50] was > 100 µM. The TGI [51] was > 100 µM, the TGI [63] was > 100 µM and the TGI [64] was > 100 µM. For the same compound, the TGI [52] was > 100 µM and the TGI [53] was > 100 µM.

`NC1CC(n2ccc(=O)[nH]c2=O)OC1C(O)CO` (stereo not drawn) was tested, and the TGI [57] was > 100 µM, the TGI [3] was > 100 µM and the TGI [4] was > 100 µM. For the same compound, the TGI [5] was > 100 µM, the TGI [6] was > 100 µM and the TGI [58] was > 100 µM. The TGI [7] was > 100 µM, the TGI [8] was > 100 µM and the TGI [10] was > 100 µM. For the same compound, the TGI [11] was > 100 µM, the TGI [12] was > 100 µM and the TGI [14] was > 100 µM. For the same compound, the TGI [15] was > 100 µM, the TGI [16] was > 100 µM and the TGI [17] was > 100 µM. The TGI [18] was > 100 µM, the TGI [19] was > 100 µM and the TGI [20] was > 100 µM. For the same compound, the TGI [59] was > 100 µM, the TGI [21] was > 100 µM and the TGI [22] was > 100 µM. For the same compound, the TGI [23] was > 100 µM, the TGI [24] was > 100 µM and the TGI [25] was > 100 µM. The TGI [26] was > 100 µM, the TGI [27] was > 100 µM and the TGI [28] was > 100 µM. The TGI [60] was > 100 µM, the TGI [29] was > 100 µM and the TGI [30] was > 100 µM. The TGI [31] was > 100 µM, the TGI [32] was > 100 µM and the TGI [33] was > 100 µM. The TGI [35] was > 100 µM, the TGI [36] was > 100 µM and the TGI [37] was > 100 µM. The TGI [38] was > 100 µM, the TGI [39] was > 100 µM and the TGI [61] was > 100 µM. The TGI [40] was > 100 µM, the TGI [41] was > 100 µM and the TGI [42] was > 100 µM. The TGI [44] was > 100 µM, the TGI [62] was > 100 µM and the TGI [56] was > 100 µM. For the same compound, the TGI [45] was > 100 µM, the TGI [46] was > 100 µM and the TGI [47] was > 100 µM. For the same compound, the TGI [48] was > 100 µM, the TGI [49] was > 100 µM and the TGI [50] was > 100 µM. The TGI [51] was > 100 µM, the TGI [63] was > 100 µM and the TGI [64] was > 100 µM. For the same compound, the TGI [52] was > 100 µM and the TGI [53] was > 100 µM.
